Molecular target: T1, RIPK2 enzyme (Homo sapiens, UniProt O43353)
T1 construct: purchased Carna 09-128
Assay: RIPK2 inhibition (ADP-Glo Kinase Assay)
Assay type: biochemical
Settings: RIPK2 5 nM, ATP 150 μM, MBP substrate, read-out: RIPK2 IC50
Summary of the method: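 Swine MBP substrate; compound and 5 nM RIPK2 first mixed for 30 min at room temperature; buffer pH 7.5 HEPES 50 mM with 10 mM MgCl2, 2 mM DTT, 1 mM EGTA, Brij-35, BSA.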

T1 sequence (O43353 1-299 limits assumed): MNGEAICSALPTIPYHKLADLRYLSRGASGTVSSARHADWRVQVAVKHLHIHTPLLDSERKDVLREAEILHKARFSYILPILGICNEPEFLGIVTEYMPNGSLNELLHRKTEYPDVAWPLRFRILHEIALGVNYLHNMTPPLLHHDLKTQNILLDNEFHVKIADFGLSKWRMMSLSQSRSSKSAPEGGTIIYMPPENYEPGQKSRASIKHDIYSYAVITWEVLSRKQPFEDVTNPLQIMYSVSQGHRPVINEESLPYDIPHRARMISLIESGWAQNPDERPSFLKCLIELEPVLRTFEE

Row | Structure (SMILES) | IC50 [nM]
1 | CC(C)(C)n1cc(NC(=O)Cc2ccc(Oc3ncnc4ccc(OC5COC5)cc34)cc2F)cn1 [Compound 49, N-(1-(tert-butyl)-1H-pyrazol-4-yl)-2-(2-fluoro-4-((6-(oxetan-3-yloxy)quinazolin-4-yl)oxy)phenyl) acetamide] | 18.5
2 | CC(C)(C)n1cc(NC(=O)Cc2ncc(Oc3ccnc4ccc(F)cc34)cn2)cn1 [Compound 4] | 61.9
3 | CN1CC[C@H](Oc2ccc3ncnc(Oc4cnc(CC(=O)Nc5cnn(C(C)(C)C)c5)c(F)c4)c3c2)C1 [Compound 59, (S)-N-(1-(tert-butyl)-1H-pyrazol-4-yl)-2-(3-fluoro-5-((6-((1-methylpyrrolidin-3-yl)oxy)quinazolin-4-yl)oxy)pyridin-2-yl)acetamide] | 41.5
4 | CC(C)(C)n1cc(NC(=O)Cc2ccc(Oc3ccnc4ccc(N5CCNCC5=O)cc34)cc2F)cn1 [Compound 155, N-(1-(tert-butyl)-1H-pyrazol-4-yl)-2-(2-fluoro-4-((6-(2-oxopiperazin-1-yl)quinolin-4-yl)oxy)phenyl) acetamide] | 2.5
5 | CC(C)(C)n1cc(NC(=O)Cc2ccc(Oc3ncnc4ccc(OC5CCOCC5)cc34)cc2F)cn1 [Compound 133, N-(1-(tert-butyl)-1H-pyrazol-4-yl)-2-(2-fluoro-4-((6-((tetrahydro-2H-pyran-4-yl)oxy)quinazolin-4-yl)oxy)phenyl) acetamide] | 10.9
6 | Cc1c(Oc2ccnc3ccc(O[C@H]4C[C@H]5CC[C@@H](C4)N5)cc23)ccc(CC(=O)Nc2cnn(C(C)(C)C)c2)c1F [Compound 409, 2-(4-((6-(((1R,3r,5S)-8-azabicyclo[3. 2.1]octan-3-yl)oxy)quinolin-4-yl)oxy)-2-fluoro-3-methyl-pheny1)-N-(1-(tert-butyl)-1H-pyrazol-4-yl)acetamide] | < 2.5
7 | Cc1cc(CC(=O)Nc2cnn(C(C)(C)C)c2)ccc1Oc1ncnc2ccc(OC3CCN(CC(F)F)CC3)cc12 [Compound 178, N-(1-(tert-butyl)-1H-pyrazol-4-yl)-2-(4-((6-((1-(2,2-difluoroethyl)piperidin-4-yl)oxy)quinazolin-4-yl)oxy)-3-methylphenyl) acetamide] | 5
8 | Cc1cc(CC(=O)Nc2cnn(C(C)(C)C)c2)ccc1Oc1ccnc2ccc(S(=O)(=O)CC(C)(C)O)cc12 [Compound 309, N-(1-(tert-butyl)-1H-pyrazol-4-yl)-2-(4-((6-((2-hydroxy-2-methylpropyl)sulfonyl)quinolin-4-yl)oxy)-3-methylphenyl)acetamide] | < 2.5
9 | Cc1cc(CC(=O)Nc2cnn(C(C)(C)C)c2)ccc1Oc1ccnc2ccc(OCC3CCCN3)cc12 (single isomer, unassigned) [Compound 190, N-(1-(tert-butyl)-1H-pyrazol-4-yl)-2-(3-methyl-4-((6-(pyrrolidin-2-ylmethoxy)quinolin-4-yl)oxy)phenyl) acetamide] | < 2.5
10 | CC(=O)N1CCC(Oc2ccc3nccc(Oc4cnc(CC(=O)Nc5cnn(C(C)(C)C)c5)c(F)c4)c3c2)CC1 [Compound 150, 2-(5-((6-((1-acetylpiperidin-4-yl)oxy)quinolin-4-yl)oxy)-3-fluoropyridin-2-yl)-N-(1-(tert-butyl)-1H-pyrazol-4-yl)acetamide] | 4.1
11 | Cc1cc(CC(=O)Nc2cnn(C(C)(C)C)c2)c(F)cc1Oc1ccnc2ccc(OC3CCNCC3)cc12 [Compound 114, N-(1-(tert-butyl)-1H-pyrazol-4-yl)-2-(2-fluoro-5-methyl-4-((6-(piperidin-4-yloxy)quinolin-4-yl)oxy)phenyl) acetamide] | < 2.5
12 | Cc1cc(CC(=O)Nc2cnn(C(C)(C)C)c2)ccc1Oc1ccnc2ccc(N(C)S(C)(=O)=O)cc12 [Compound 265, N-(1-(tert-butyl)-1H-pyrazol-4-yl)-2-(3-methyl-4-((6-(N-methylmethyl-sulfonamido)quinolin-4-yl)oxy)phenyl) acetamide] | < 2.5

The remaining lines, values ahead:

Row | IC50 [nM] | Structure (SMILES)
13 | < 2.5 | CN1CCC(S(=O)(=O)c2ccc3nccc(Oc4ccc(CC(=O)Nc5cnn(C(C)(C)C)c5)c(F)c4)c3c2)CC1 [Compound 125, N-(1-(tert-butyl)-1H-pyrazol-4-yl)-2-(2-fluoro-4-((6-((1-methylpiperidin-4-yl)sulfonyl)quinolin-4-yl)oxy)phenyl)acetamide]
14 | < 2.5 | COc1cc2nccc(Oc3ccc(CC(=O)Nc4cnn(C(C)(C)C)c4)c(F)c3)c2cc1S(=O)(=O)C(C)(C)C [Compound 3, N-(1-(tert-butyl)-1H-pyrazol-4-yl)-2-(4-((6-(tert-butylsulfonyl)-7-methoxyquinolin-4-yl)oxy)-2-fluorophenyl)acetamide]
15 | < 2.5 | Cc1cc(CC(=O)Nc2cnn(C(C)(C)C)c2)ccc1Oc1ccnc2ccc(N3CC(CN)OC3=O)cc12 (single isomer, unassigned) [Compound 319, 2-(4-((6-(5-(aminomethyl)-2-oxooxazolidin-3-yl)quinolin-4-yl)oxy)-3-methylphenyl)-N-(1-(tert-butyl)-1H-pyrazol-4-yl)acetamide]
16 | < 2.5 | Cc1cc(CC(=O)Nc2cnn(C(C)(C)C)c2)c(F)cc1Oc1ccnc2ccc(C(=O)N3CC4(COC4)C3)cc12 [Compound 372, 2-(4-((6-(2-oxa-6-azaspiro[3.3]heptane-6-carbonyl)quinolin-4-yl)oxy)-2-fluoro-5-methyl-phenyl)-N-(1-(tert-butyl)-1H-pyrazol-4-yl)acetamide]
17 | < 2.5 | Cc1c(Oc2ccnc3ccc(C(=O)N[C@H]4C[C@@H](O)C4)cc23)ccc(CC(=O)Nc2cnn(C(C)(C)C)c2)c1F [Compound 402, 4-(4-(2-((1-(tert-butyl)-1H-pyrazol-4-yl)amino)-2-oxoethyl)-3-fluoro-2-methyl-phenoxy)-N-((1s,3s)-3-hydroxy-cyclobutyl) quinoline-6-carboxamide]
18 | < 2.5 | Cc1cc(CC(=O)Nc2cnn(C(C)(C)C)c2)ccc1Oc1ccnc2ccc(OCCN)cc12 [Compound 222, 2-(4-((6-(2-aminoethoxy)quinolin-4-yl)oxy)-3-methyl-phenyl)-N-(1-(tert-butyl)-1H-pyrazol-4-yl)acetamide]
19 | < 2.5 | CC(C)(C)n1cc(NC(=O)Cc2ccc(Oc3ccnc4ccc(OC5CCNCC5)cc34)c(F)c2)cn1 [Compound 161, N-(1-(tert-butyl)-1H-pyrazol-4-yl)-2-(3-fluoro-4-((6-(piperidin-4-yloxy)quinolin-4-yl)oxy)phenyl) acetamide]
20 | < 2.5 | Cc1c(Oc2ncnc3ccc(OC4CCN(C)CC4)cc23)ccc(CC(=O)Nc2cc(C(C)(C)C)n[nH]2)c1F [Compound 186, N-(5-(tert-butyl)-1H-pyrazol-3-yl)-2-(2-fluoro-3-methyl-4-((6-((1-methyl-piperidin-4-yl)oxy)quinazolin-4-yl)oxy)phenyl) acetamide]
21 | < 2.5 | Cc1cc(CC(=O)Nc2cnn(C(C)(C)C)c2)c(F)cc1Oc1ncnc2ccc(OC3CCN(C)CC3)cc12 [Compound 117, N-(1-(tert-butyl)-1H-pyrazol-4-yl)-2-(2-fluoro-5-methyl-4-((6-((1-methyl-piperidin-4-yl)oxy)quinazolin-4-yl)oxy)phenyl) acetamide]
22 | < 2.5 | Cc1cc(CC(=O)Nc2cnn(C(C)(C)C)c2)c(F)cc1Oc1ccnc2ccc(S(=O)(=O)CC(C)(C)O)cc12 [Compound 415, N-(1-(tert-butyl)-1H-pyrazol-4-yl)-2-(2-fluoro-4-((6-((2-hydroxy-2-methylpropyl)sulfonyl)quinolin-4-yl)oxy)-5-methylphenyl)acetamide]
23 | < 2.5 | Cc1c(Oc2ccnc3ccc(C(=O)N4CCC(O)C4)cc23)ccc(CC(=O)Nc2cnn(C(C)(C)C)c2)c1F (single isomer, unassigned) [Compound 351, N-(1-(tert-butyl)-1H-pyrazol-4-yl)-2-(2-fluoro-4-((6-(3-hydroxy-pyrrolidine-1-carbonyl)quinolin-4-yl)oxy)-3-methyl-phenyl) acetamide]
24 | < 2.5 | CCP(=O)(CC)c1ccc2nccc(Oc3ccc(CC(=O)Nc4cnn(C(C)(C)C)c4)cc3C)c2c1 [Compound 180, N-(1-(tert-butyl)-1H-pyrazol-4-yl)-2-(4-((6-(diethylphosphoryl)quinolin-4-yl)oxy)-3-methylphenyl) acetamide]
25 | < 2.5 | Cc1cc(CC(=O)Nc2cnn(C(C)(C)C)c2)ccc1Oc1ccnc2cc(OCC(F)(F)F)c(S(C)(=O)=O)cc12 [Compound 219, N-(1-(tert-butyl)-1H-pyrazol-4-yl)-2-(3-methyl-4-((6-(methylsulfonyl)-7-(2,2,2-trifluoroethoxy)quinolin-4-yl)oxy)phenyl)acetamide]
26 | < 2.5 | Cc1cc(CC(=O)Nc2cnn(C(C)(C)C)c2)ccc1Oc1ccnc2ccc(N3CCOC3=O)cc12 [Compound 293, N-(1-(tert-butyl)-1H-pyrazol-4-yl)-2-(3-methyl-4-((6-(2-oxooxazolidin-3-yl)quinolin-4-yl)oxy)phenyl) acetamide]
27 | < 2.5 | Cc1c(Oc2ccnc3ccc(C(=O)N4CCC(N)C4)cc23)ccc(CC(=O)Nc2cnn(C(C)(C)C)c2)c1F (single isomer, unassigned) [Compound 354, 2-(4-((6-(3-amino-pyrrolidine-1-carbonyl)quinolin-4-yl)oxy)-2-fluoro-3-methyl-phenyl)-N-(1-(tert-butyl)-1H-pyrazol-4-yl)acetamide]
28 | < 2.5 | COc1cc2ncnc(Oc3cc(F)c(CC(=O)Nc4cnn(C(C)(C)C)c4)cc3C)c2cc1C(N)=O [Compound 439, 4-(4-(2-((1-(tert-butyl)-1H-pyrazol-4-yl)amino)-2-oxoethyl)-5-fluoro-2-methylphenoxy)-7-methoxyquinazoline-6-carboxamide]
29 | < 2.5 | [2H]C([2H])([2H])n1nc(NC(=O)Cc2ccc(Oc3ccnc4ccc(S(C)(=O)=O)cc34)c(C)c2)cc1C(C)(C)C [Compound 231, N-(5-(tert-butyl)-1-(methyl-d3)-1H-pyrazol-3-yl)-2-(3-methyl-4-((6-(methylsulfonyl)quinolin-4-yl)oxy)phenyl)acetamide]
